Values joined by “and” are separate entries in the source; they are usually repeats but may differ in a detail not shown here. Equal entries are not always repeated.
Columns and labels:
[1] = molecular target: GABAA receptor ([35S]-TBPS binding site, rat brain cortical membranes); assay: Displacement of [35S]-TBPS binding, rat brain cortical membranes; conditions: 5 μM GABA, 2 nM [35S]-TBPS; ± standard error of the means
Outline: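 Rat cortical P2 membranes (0.5 mg/mL protein) incubated 2 h at room temperature with 2 nM [35S]-TBPS, 5 μM GABA and steroid (1 nM–10 μM) in 200 mM NaCl/50 mM potassium phosphate, pH 7.4. Filter-bound radioactivity counted; IC50 from Hill equation fit, triplicate points.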

[2] = molecular target: T1, rat α1β2γ2 GABAA Receptor (Rattus norvegicus, UniProt P18508+P62813+P63138, INS375LLRMFSFK); assay: Xenopus oocyte two-electrode voltage-clamp electrophysiology; format: cell-based; conditions: for Oocyte electrophysiology, ratio of currents in presence/absence of compound, 0.1 μM: 0.1 μM compound co-applied with 2 μM GABA; for Oocyte electrophysiology, ratio of currents in presence/absence of compound, 0.1 μM / Oocyte electrophysiology, ratio of currents in presence/absence of compound, 1 μM / Oocyte electrophysiology, ratio of currents in presence/absence of compound, 10 μM: −70 mV; for Oocyte electrophysiology, ratio of currents in presence/absence of compound, 1 μM: 1 μM compound co-applied with 2 μM GABA; for Oocyte electrophysiology, ratio of currents in presence/absence of compound, 10 μM: 10 μM compound co-applied with 2 μM GABA; for Gating (10 μM), ratio of compound only current/2 μM GABA current: direct current gated by 10 μM compound in the absence of GABA
T1 construct: from linearized pBluescript vectors containing receptor coding regions; expressed in transfected cells; host or cells: Xenopus laevis oocytes injected with in vitro transcribed capped mRNA
Outline: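 Oocytes injected with rat α1, β2, γ2L mRNA, voltage-clamped at −70 mV 2-5 days later in ND96. Compounds co-applied with 2 μM GABA for 20 s; peak current ratio with/without compound, n≥4 oocytes. (G): current from 10 μM compound alone, as ratio to 2 μM GABA current.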

Xenopus laevis tadpoles = assay: Tadpole loss of righting (LRR) and swimming (LSR) reflexes; format: in vivo; conditions: 3 h equilibration at room temperature; for EC50: Xenopus laevis, 3 h, read-out: LSR EC50 (loss of swimming response)
Outline: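 Groups of 10 early prelimb-bud Xenopus laevis tadpoles were held for 3 h at room temperature in oxygenated Ringer's containing compound (DMSO ≤0.1%). Loss of righting was scored as failure to right within 5 sec after flipping, and loss of swimming as failure to swim when touched. EC50 came from a Hill equation fit.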

T1 sequence (P62813 28-455, stated change not applied): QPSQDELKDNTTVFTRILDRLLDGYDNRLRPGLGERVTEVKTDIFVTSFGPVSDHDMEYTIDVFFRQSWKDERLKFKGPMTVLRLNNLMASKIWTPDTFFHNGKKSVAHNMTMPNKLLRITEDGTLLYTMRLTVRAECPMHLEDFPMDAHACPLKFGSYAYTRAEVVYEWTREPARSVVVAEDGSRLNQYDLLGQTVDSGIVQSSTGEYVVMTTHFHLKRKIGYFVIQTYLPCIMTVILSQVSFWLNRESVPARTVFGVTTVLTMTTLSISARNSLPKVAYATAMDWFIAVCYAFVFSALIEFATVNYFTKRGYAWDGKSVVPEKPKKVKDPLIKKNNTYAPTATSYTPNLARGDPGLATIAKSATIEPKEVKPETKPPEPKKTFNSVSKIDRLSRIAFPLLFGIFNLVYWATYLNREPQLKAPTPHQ
T1 sequence (P63138 26-474, stated change not applied): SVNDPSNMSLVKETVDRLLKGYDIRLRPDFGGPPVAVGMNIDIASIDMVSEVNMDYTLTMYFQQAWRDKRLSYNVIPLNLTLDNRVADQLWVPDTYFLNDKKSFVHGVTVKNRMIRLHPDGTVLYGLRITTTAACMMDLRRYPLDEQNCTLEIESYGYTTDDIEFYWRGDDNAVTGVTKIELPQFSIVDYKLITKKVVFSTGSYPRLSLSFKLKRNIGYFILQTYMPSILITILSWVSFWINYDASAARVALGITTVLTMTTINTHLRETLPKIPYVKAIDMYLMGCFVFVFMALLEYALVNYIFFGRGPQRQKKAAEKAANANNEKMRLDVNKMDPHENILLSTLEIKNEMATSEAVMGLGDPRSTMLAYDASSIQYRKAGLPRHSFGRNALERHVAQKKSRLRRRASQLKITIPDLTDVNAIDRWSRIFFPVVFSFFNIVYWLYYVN
T1 sequence (P18508 with tags, fused parts or gaps INS375LLRMFSFK): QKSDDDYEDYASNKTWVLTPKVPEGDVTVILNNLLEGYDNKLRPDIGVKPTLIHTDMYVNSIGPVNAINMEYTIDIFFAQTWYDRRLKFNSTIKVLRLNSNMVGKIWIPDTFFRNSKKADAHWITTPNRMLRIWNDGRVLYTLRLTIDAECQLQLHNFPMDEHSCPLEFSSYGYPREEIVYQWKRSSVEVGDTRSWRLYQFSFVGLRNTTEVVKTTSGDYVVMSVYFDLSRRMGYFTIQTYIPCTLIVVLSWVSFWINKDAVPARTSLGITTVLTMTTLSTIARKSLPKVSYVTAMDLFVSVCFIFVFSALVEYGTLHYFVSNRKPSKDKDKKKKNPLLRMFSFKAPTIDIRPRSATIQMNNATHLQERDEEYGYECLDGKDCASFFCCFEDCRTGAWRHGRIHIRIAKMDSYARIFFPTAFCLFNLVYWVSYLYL

Structure (SMILES)	IC50 [1]	Oocyte electrophysiology, ratio of currents in presence/absence of compound, 0.1 μM [2]	Oocyte electrophysiology, ratio of currents in presence/absence of compound, 1 μM [2]	Oocyte electrophysiology, ratio of currents in presence/absence of compound, 10 μM [2]	Gating (10 μM), ratio of compound only current/2 μM GABA current [2]	LRR ED50 (loss of righting response) (Xenopus laevis tadpoles)	LSR EC50 (loss of swimming response) (Xenopus laevis tadpoles)	melting point	EC50 (Xenopus laevis tadpoles)
C[C@]12CC[C@@H](O)C[C@@H]1CCC1C3CC[C@@H]4[C@@H](C#N)CCC[C@]34CCC12 (stereo partly drawn) [Compound 40, (3α,5α,20S)-3-Hydroxy-13,24-cyclo-18,21-dinorcholane-20-carbonitrile]	0.173 ± 0.012 µM	1.06 ± 0.03	1.23 ± 0.02	1.27 ± 0.02	−0.01 ± 0.01	>10 µM	None @ 10	250 to 251 °C	–
C[C@]12CC[C@@H](O)C[C@@H]1CCC1C3CC[C@@H]4C[C@@H](C#N)CC[C@]34CCC12 (stereo partly drawn) [Compound 44, (3α,5α,22S)-3-Hydroxy-13,24-cyclo-18,21-dinorcholane-22-carbonitrile]	0.585 ± 0.03 µM	1.19 ± 0.02	1.14 ± 0.13	4.01 ± 0.42	0.03 ± 0.01	0.30 ± 0.03 µM	–	199 to 200 °C	6.28 ± 1.08 µM
C[C@]12CC[C@@H](O)C[C@@H]1CCC1C3CC[C@@H]4C[C@H](C#N)CC[C@]34CCC12 (stereo partly drawn) [Compound 45, (3α,5α,22R)-3-Hydroxy-13,24-cyclo-18,21-dinorcholane-22-carbonitrile]	44.3 ± 21.3 µM	0.90 ± 0.02	0.82 ± 0.02	0.87 ± 0.01	−0.01 ± 0	>10 µM	None @ 10	244 to 246 °C	–
C[C@]12CC[C@@H](O)C[C@@H]1CCC1C3CC[C@@H]4CC[C@@H](C#N)C[C@]34CCC12 (stereo partly drawn) [Compound 49, (3α,5α,20R)-3-Hydroxy-13,24-cyclo-18,21-dinorcholane-23-carbonitrile]	0.574 ± 0.026 µM	–	–	1.3 ± 0.1	–	0.35 ± 0.09 µM	–	182 to 183 °C	> 10 µM
C[C@]12CC[C@@H](O)C[C@@H]1CCC1C3CC[C@@H]4CC[C@H](C#N)C[C@]34CCC12 (stereo partly drawn) [Compound 50, (3α,5α,20S)-3-Hydroxy-13,24-cyclo-18,21-dinorcholane-23-carbonitrile]	0.482 ± 0.02 µM	–	–	2.1 ± 0.2	–	0.35 ± 0.07 µM	–	157 to 159 °C	0.95 ± 0.01 µM
C=C1CCC[C@]23CCC4C(CC[C@H]5C[C@H](O)CC[C@]45C)C2CC[C@H]13 (stereo partly drawn) [Compound 51, (3α,5α)-20-Methylene-13,24-cyclo-18,21-dinorcholan-3-ol]	0.181 ± 0.009 µM	0.90 ± 0.15	0.93 ± 0.08	0.95 ± 0.05	−0.06 ± 0.06	>10 µM	None @ 10	211 to 213 °C	–
C=C1CCC[C@]23CCC4C(CC[C@@H]5C[C@H](O)CC[C@]45C)C2CC[C@H]13 (stereo partly drawn) [Compound 52, (3α,5α)-20-Methylene-13,24-cyclo-18,21-dinorcholan-3-ol]	0.213 ± 0.021 µM	1.57 ± 0.16	3.47 ± 0.50	6.22 ± 0.92	−0.02 ± 0.02	4.88 ± 1.12 µM	–	131 to 133 °C	> 10 µM
C[C@]12CC[C@@H](O)C[C@@H]1CCC1C3CC[C@@H]4C(C#N)=CCC[C@]34CCC12 (stereo partly drawn) [Compound 57, (3α,5α)-3-Hydroxy-13,24-cyclo-18,21-dinorchol-20(22)-ene-20-carbonitrile]	0.433 ± 0.03 µM	0.91 ± 0.03	0.96 ± 0.04	3.18 ± 0.24	0.01 ± 0.02	0.42 µM	None @ 10	193 to 195 °C	–
C[C@]12CC[C@@H](O)C[C@@H]1CCC1C3CC[C@@H]4C=CC=C[C@]34CCC12 (stereo partly drawn) [Compound 60, (3α,5α)-13,24-Cyclo-18,21-dinorchol-20(22),23-dien-3-ol]	0.467 ± 0.026 µM	–	–	1.1 ± 0.1	–	2.70 ± 0.72 µM	–	136 to 138 °C	> 10 µM
C[C@]12CC[C@@H](O)C[C@@H]1CCC1C3CC[C@@H]4CCC=C[C@]34CCC12 (stereo partly drawn) [Compound 61, (3α,5α)-13,24-Cyclo-18,21-dinorchol-23-en-3-ol]	2 ± 0.19 µM	1.28 ± 0.08	1.47 ± 0.10	1.72 ± 0.26	0.19 ± 0.10	None @ 10	None @ 10	166.5 to 169 °C	–
C[C@]12CC[C@@H](O)C[C@@H]1CCC1C3CC[C@@H]4/C(=C/C#N)CCC[C@]34CCC12 (stereo partly drawn) [Compound 63, (3α,5α,20E)-3-Hydroxy-13,24-cyclo-18-norcholan-20-ene-21-carbonitrile]	0.011 ± 0.0018 µM	6.29 ± 1.71	12.34 ± 3.28	17.82 ± 3.75	0.01 ± 0.02	0.04 ± 0.00 µM	–	210 to 212 °C and 214 to 216 °C	0.08 ± 0.02 µM
CC12CCC(O)CC1CCC1C2CCC23CCCC(=CC#N)C2CCC13 (stereo not drawn) [Compound 64, (3α,5α,20Z)-3-Hydroxy-13,24-cyclo-18-norcholan-20-ene-21-carbonitrile]	1.08 µM	1.19 ± 0.04	1.27 ± 0.03	1.74 ± 0.11	0.03 ± 0.04	0.68 ± 0.15 µM	–	201.5 to 203 °C	10.2 µM
CC12CCC(O)CC1CCC1C2CCC23CCCC(O)C2CCC13 [Compound 67, (3α,5α,20S)-13,24-cyclo-18,21-dinorcholane-3,20-diol]	0.613 ± 0.092 µM	0.89 ± 0.03	0.94 ± 0.08	1.37 ± 0.15	−0.01 ± 0.00	None @ 10	None @ 10	261 to 262 °C	–

— patent US7781421B2, “Neuroactive 13, 24-cyclo-18, 21-dinorcholanes and structurally related pentacyclic steriods” (Washington University, priority 2003, dated 2010)
